{"source": "patent US4410716A", "about": "“Dibenzo[a,d]cycloheptene derivatives and process for production thereof” (Toa Eiyo Kagaku Kogyo Co. Ltd., priority 1979, dated 1983)", "key": {"[1]": {"tested_on": "edema (carrageenin, hind paw)", "experiment": "Anti-inflammatory activity: carrageenin hind paw edema in rats, oral administration", "assay_type": "in vivo, male Donryu rats", "details": "Rattus norvegicus, po; for inhibition in vivo at 1 mg/kg / inhibition in vivo at 5 mg/kg / inhibition in vivo at 10 mg/kg: read-out: Percent edema inhibition", "description": "(§1) The anti-inflammatory activity, analgesic activity and ulcerogenic activity of the novel dibenzo[a,d]cycloheptene derivatives of this invention were tested by the following methods.\nEach of test compounds was orally administered to groups of male Donryu rats weighing 130 to 150 g (8 to 10 rats per group), and one hour later, 0.1 ml of a 1% carrageenin solution was injected subcutaneously into the hind paw of each rat. After injection of carrageenin, the volume of the paw was measured at predetermined periods, and the percent inhibition against a control group was calculated."}, "[2]": {"tested_on": "writhing syndromes (acetic acid)", "experiment": "Analgesic activity: acetic acid writhing in mice", "assay_type": "in vivo, male ICR mice", "description": "as §1\nUsing male ICR mice weighing 25 to 30 g (10 mice per group), there was measured the number of writhing syndromes induced when a 1% solution of acetic acid was intraperitoneally injected at a dose of 10 ml/kg. The percent inhibition against a control group was calculated."}, "[3]": {"tested_on": "gastric wall", "experiment": "in vivo", "details": "for Number of animals with ulcer/number of animals used: 16 hours; for Ulcer index (Mean ± SE): Adami's method", "description": "as §1\n(§2) Sixteen hours later, the rats were sacrificed under ether anesthesia.\n(§3) *Calculated by the Adami's method.\n(§4) **Calculated by the LitchfieldWilcoxon's method. The parenthesized values\n(§5) show 95% confidence limits."}, "[4]": {"experiment": "in vivo", "details": "rat, in vivo, po", "description": "as §1, §2, §3, §4, §5"}}, "note": "Where two headings read alike, the source gives them in different places.", "data": [{"compound": "COc1ccc2c(c1)c(CC(=O)O)c(C)n2C(=O)c1ccc(Cl)cc1", "note": "[Indomethacin, reference compound]", "values": [{"measurement": "inhibition in vivo at 1 mg/kg", "setting": "[1]; 1 h", "value": 0, "unit": "%"}, {"measurement": "inhibition in vivo at 5 mg/kg", "setting": "[1]; 1 h", "value": 3.9, "unit": "%"}, {"measurement": "inhibition in vivo at 10 mg/kg", "setting": "[1]; 1 h", "value": 37.2, "unit": "%"}, {"measurement": "inhibition in vivo at 1 mg/kg", "setting": "[1]; 2 h", "value": 20.3, "unit": "%"}, {"measurement": "inhibition in vivo at 5 mg/kg", "setting": "[1]; 2 h", "value": 31.1, "unit": "%"}, {"measurement": "inhibition in vivo at 10 mg/kg", "setting": "[1]; 2 h", "value": 45.3, "unit": "%"}, {"measurement": "ED40", "setting": "[1]; 3 h, read-out: ED40 value", "value": 9.8, "unit": "mg/kg"}, {"measurement": "inhibition in vivo at 1 mg/kg", "setting": "[1]; 3 h", "value": 6.3, "unit": "%"}, {"measurement": "inhibition in vivo at 5 mg/kg", "setting": "[1]; 3 h", "value": 25.9, "unit": "%"}, {"measurement": "inhibition in vivo at 10 mg/kg", "setting": "[1]; 3 h", "value": 41.8, "unit": "%"}, {"measurement": "inhibition in vivo at 1 mg/kg", "setting": "[1]; 4 h", "value": 10.2, "unit": "%"}, {"measurement": "inhibition in vivo at 5 mg/kg", "setting": "[1]; 4 h", "value": 31.7, "unit": "%"}, {"measurement": "inhibition in vivo at 10 mg/kg", "setting": "[1]; 4 h", "value": 40.5, "unit": "%"}, {"measurement": "Inhibition (writhing)", "setting": "[2]; 1.25 mg/kg", "value": 27.7, "unit": "%"}, {"measurement": "Number of writhing syndromes (Mean ± SE)", "setting": "[2]; 1.25 mg/kg", "value": "14.6 ± 2.35"}, {"measurement": "Inhibition (writhing)", "setting": "[2]; 2.5 mg/kg", "value": 40.6, "unit": "%"}, {"measurement": "Number of writhing syndromes (Mean ± SE)", "setting": "[2]; 2.5 mg/kg", "value": "12.0 ± 0.92"}, {"measurement": "Inhibition (writhing)", "setting": "[2]; 5.0 mg/kg", "value": 48.0, "unit": "%"}, {"measurement": "Number of writhing syndromes (Mean ± SE)", "setting": "[2]; 5.0 mg/kg", "value": "10.5 ± 1.40"}, {"measurement": "Inhibition (writhing)", "setting": "[2]; 10.0 mg/kg", "value": 62.4, "unit": "%"}, {"measurement": "Number of writhing syndromes (Mean ± SE)", "setting": "[2]; 10.0 mg/kg", "value": "7.6 ± 1.15"}, {"measurement": "Inhibition (writhing)", "setting": "[2]; 20.0 mg/kg", "value": 70.3, "unit": "%"}, {"measurement": "Number of writhing syndromes (Mean ± SE)", "setting": "[2]; 20.0 mg/kg", "value": "6.0 ± 0.94"}, {"measurement": "ED50", "setting": "[2]; Mus musculus, po, read-out: ED50 value", "value": 5, "unit": "mg/kg"}, {"measurement": "Number of animals with ulcer/number of animals used", "setting": "[3]; 3.13 mg/kg oral", "value": "0/8"}, {"measurement": "Ulcer index (Mean ± SE)", "setting": "[3]; 3.13 mg/kg oral", "value": 0}, {"measurement": "Number of animals with ulcer/number of animals used", "setting": "[3]; 6.25 mg/kg oral", "value": "2/8"}, {"measurement": "Ulcer index (Mean ± SE)", "setting": "[3]; 6.25 mg/kg oral", "value": "0.37 ± 0.26"}, {"measurement": "Number of animals with ulcer/number of animals used", "setting": "[3]; 12.5 mg/kg oral", "value": "4/8"}, {"measurement": "Ulcer index (Mean ± SE)", "setting": "[3]; 12.5 mg/kg oral", "value": "1.38 ± 0.53"}, {"measurement": "Number of animals with ulcer/number of animals used", "setting": "[3]; 25.0 mg/kg oral", "value": "7/8"}, {"measurement": "Ulcer index (Mean ± SE)", "setting": "[3]; 25.0 mg/kg oral", "value": "1.88 ± 0.35"}, {"measurement": "Number of animals with ulcer/number of animals used", "setting": "[3]; 50.0 mg/kg oral", "value": "8/8"}, {"measurement": "Ulcer index (Mean ± SE)", "setting": "[3]; 50.0 mg/kg oral", "value": "3.12 ± 0.12"}, {"measurement": "TD50 at 16 h", "setting": "[4]", "value": 11.7, "unit": "mg/kg"}, {"measurement": "selectivity ratio", "setting": "[4]", "value": 1.2}]}]}
